# Measurements taken from the supplement of paper PMC11061612.
# Key:
# Assay in all cases: Bliss excess, mean over the matrix (fraction); higher = more synergy
# [1] = tested on: CAL-54 (Kidney Carcinoma)
# In short: (§1)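 Cell lines grown in DMEM/F12 or RPMI with 10% FBS were plated in 1536-well plates and held 24 hours at 37°C, 5% CO2 before 72 hours of exposure to two-drug dose matrices, with DMSO typically at 0.2%. CellTiter-Glo 2.0 luminescence gave viability, which was converted to inhibition. Vehicle wells were set to 0 and blank wells to 1. Combination Emax is the second-highest inhibition in the matrix, and Bliss excess is the observed combination effect minus the expected EA + EB − EA·EB, where EA and EB are the single-agent effects.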
# [2] = tested on: CAPAN-1 (Pancreatic Carcinoma)
# In short: as §1
# [3] = tested on: EN (Endometrial Carcinoma)
# In short: as §1
# [4] = tested on: HARA (Squamous Cell Lung Carcinoma)
# In short: as §1
# HMV-II (Melanoma) = tested on: HMV-II (Melanoma)
# In short: as §1
# [5] = tested on: HO-1-u-1 (Oral Cavity Carcinoma)
# In short: as §1
# [6] = tested on: K5 (Thyroid Gland Carcinoma)
# In short: as §1
# [7] = tested on: MDA-MB-468 (Breast Carcinoma)
# In short: as §1
# Mewo (Melanoma) = tested on: Mewo (Melanoma)
# In short: as §1
# NCI-H2461 (Mesothelioma) = tested on: NCI-H2461 (Mesothelioma)
# In short: as §1
# NCI-H2795 (Mesothelioma) = tested on: NCI-H2795 (Mesothelioma)
# In short: as §1
# [8] = tested on: NCI-H69 (Small Cell Lung Carcinoma)
# In short: as §1
# [9] = tested on: OC-314 (Ovarian Carcinoma)
# In short: as §1
# [10] = tested on: PCI-30 (Head and Neck Carcinoma)
# In short: as §1
# [11] = tested on: RPMI-6666 (Non-Cancerous)
# In short: as §1
# [12] = tested on: RT-112 (Bladder Carcinoma)
# In short: as §1
# SH-4 (Melanoma) = tested on: SH-4 (Melanoma)
# In short: as §1
# [13] = tested on: SU-DHL-6 (B-Cell Non-Hodgkin's Lymphoma)
# In short: as §1
# [14] = tested on: SW1116 (Colorectal Carcinoma)
# In short: as §1
# [15] = tested on: SW1271 (Small Cell Lung Carcinoma)
# In short: as §1
SMILES,Bliss excess [1],Bliss excess [2],Bliss excess [3],Bliss excess [4],Bliss excess (HMV-II (Melanoma)),Bliss excess [5],Bliss excess [6],Bliss excess [7],Bliss excess (Mewo (Melanoma)),Bliss excess (NCI-H2461 (Mesothelioma)),Bliss excess (NCI-H2795 (Mesothelioma)),Bliss excess [8],Bliss excess [9],Bliss excess [10],Bliss excess [11],Bliss excess [12],Bliss excess (SH-4 (Melanoma)),Bliss excess [13],Bliss excess [14],Bliss excess [15]
"O=C(c1cc(Cc2n[nH]c(=O)c3ccccc23)ccc1F)N1CCN(C(=O)C2CC2)CC1 [Olaparib] + Cc1c2c(nn1C)CSCc1cc(n(C)n1)CSc1cc(c3ccccc3c1)OCCCc1c(C(=O)O)n(C)c3c-2c(Cl)ccc13 [AZD5991] (first compound max 10 µM, 7x7, partner max 1 µM)",-0.0272,-0.0392,-0.016,-0.0358,-0.0561,-0.0224,-0.0563,-0.0391,-0.0652,-0.0502,-0.0207,0.0008,-0.0142,-0.048,0.017,0.0048,-0.0412,0.0065,-0.0503,-0.0523
"N#Cc1cnc(Nc2cc(NC[C@H]3CNCCO3)c(C(F)(F)F)cn2)cn1 [SRA737] + C=CCn1c(=O)c2cnc(Nc3ccc(N4CCN(C)CC4)cc3)nc2n1-c1cccc(C(C)(C)O)n1 [AZD1775] (first compound max 10 µM, partner max 1 µM)",0.0005,-0.0663,0.0422,0.0442,0.0015,0.0809,-0.0051,0.0705,-0.0149,0.0428,0.0401,0.0231,0.165,0.116,-0.0021,0.107,0.0688,0.131,-0.0119,-0.0045
"N#Cc1cnc(Nc2cc(NC[C@H]3CNCCO3)c(C(F)(F)F)cn2)cn1 [SRA737] + CCc1c2c(nc3ccc(O)cc13)-c1cc3c(c(=O)n1C2)COC(=O)[C@]3(O)CC [SN-38] (first compound max 10 µM, 7x7, partner max 0.3 µM)",-0.0693,-0.0974,-0.0706,-0.0628,-0.0523,0.106,-0.043,-0.0136,0.022,-0.0351,-0.0977,0.0781,-0.0056,-0.0079,-0.0707,0.138,-0.111,0.0295,0.0312,-0.0752
"N#Cc1cnc(Nc2cc(NC[C@H]3CNCCO3)c(C(F)(F)F)cn2)cn1 [SRA737] + Nc1ccn([C@@H]2O[C@H](CO)[C@@H](O)C2(F)F)c(=O)n1 [Gemcitabine] (first compound max 10 µM, 7x7, partner max 0.3 µM)",-0.0458,-0.0582,-0.0331,-0.0013,-0.0122,0.0492,0.0428,0.0293,-0.0047,-0.0309,-0.0258,-0.0077,0.108,-0.0288,-0.0487,0.178,0.0138,0.101,0.0727,0.0198
"N#Cc1cnc(Nc2cc(NC[C@H]3CNCCO3)c(C(F)(F)F)cn2)cn1 [SRA737] + O=c1[nH]cc(F)c(=O)[nH]1 [5-Fluorouracil] (first compound max 10 µM, 7x7, partner max 20 µM)",-0.0373,0.0479,-0.0338,-0.0379,-0.0542,-0.0774,-0.0459,-0.0199,-0.0136,-0.0256,0.0744,-0.0461,0.114,0.0058,-0.003,0.0881,-0.0344,0.0498,-0.033,-0.0472
"CC1(C)CCC(CN2CCN(c3ccc(C(=O)NS(=O)(=O)c4ccc(NCC5CCOCC5)c([N+](=O)[O-])c4)c(Oc4cnc5[nH]ccc5c4)c3)CC2)=C(c2ccc(Cl)cc2)C1 [Venetoclax] + CS(=O)(=O)CCNCc1ccc(-c2ccc3ncnc(Nc4ccc(OCc5cccc(F)c5)c(Cl)c4)c3c2)o1 [Lapatinib] (first compound max 1 µM, 7x7, partner max 10 µM)",-0.0788,-0.0262,-0.0492,-0.02,-0.045,0.0094,-0.0404,-0.141,-0.0949,-0.04,-0.058,0.0391,0.0051,-0.0457,0.0423,-0.0371,-0.0489,0.0481,-0.0129,-0.0239
